Source: US20190008152A1, “PLANT DISEASE CONTROL COMPOSITION AND PLANT DISEASE CONTROL METHOD” (SUMITOMO CHEMICAL COMPANY, LIMITED, priority 2015, published 2019)

Assays:
wheat leaf blight fungus = experiment: Test Example 3: growth of wheat leaf blight fungus in YBG medium, microtiter plate, absorbance at 550 nm; assay type: cell-based, Mycosphaerella graminicola; conditions: single use, 18° C., six days
Description: The present compound 1-3 or the present compound 2-1 was dissolved into dimethyl sulfoxide such that each concentration of the present compound 1-3 or the present compound 2-1 was adjusted to one hundred fifty times as much as the concentration indicated in the below-mentioned Table 5. The resultant agent solution was dispensed into a microtiter plate (with 96 wells) in 1 μl portion thereof per well. One hundred forty nine (149) μl of YBG medium (which was prepared by dissolving 10 g of yeast extract, 10 g of Bacto Peptone, and 20 mL of glycerol into 1 L of water, followed by sterilizing the medium) was dispensed into the wells to which the agent solution(s) was/were dispensed. The plate was cultivated at 18° C. for six days, thereby allowing wheat leaf blight fungus to undergo proliferation, and the absorbance at 550 nm of each well of the micro titer plate was then measured to examine a degree of growth of the wheat leaf blight fungus (hereinafter referred to as “treated group”).
Whereas, wheat leaf blight fungus was proliferated similarly to the case of the treated group except that dimethyl sulfoxide was used instead of the agent solution, and the degree of the growth was examined (hereinafter referred to as “untreated group”). The efficacy was calculated from the respective obtained degree of growth by the below-mentioned “Equation 1”.
Efficacy (%)=100×(X−Y)/X Equation 1 […]

[1] = test system: wheat rust fungus (Puccinia recondita); experiment: Test Example 4: foliar spray of flowable formulations on wheat, inoculation with wheat rust fungus, lesion area; assay type: in vivo, Puccinia recondita on wheat (cultivar. Shirogane); conditions: single use
Description: Five (5) parts of the present compound 1-3, 35 parts of a mixture of white carbon and ammonium polyoxyethylene alkyl ether sulfate (the weight ratio of 1:1) and 55 parts of water were mixed, and the mixture was then finely-ground by a wet grinding method to obtain a flowable formulation comprising the present compound 1-3. Separately, the flowable formulation comprising the present compound 2-1 was prepared according to the above-mentioned similar method except that the present compound 2-1 was used instead of the present compound 1-3 to form a flowable formulation comprising the present compound 2-1.
Each of the above-mentioned respective flowable formulations, and the flowable formulation comprising the present compound 1-3 and the present compound 2-1 that was prepared according to the above-mentioned Formulation Example 3 was diluted with water such that each concentration of the respective compounds in the dilution solutions was adjusted to that indicated in Table 6, to prepare the dilution solutions, respectively.
A plastic pot was filled with soil, and thereto wheat (cultivar. Shirogane) was seeded, and the plants were grown in a greenhouse for ten days. […]
From each of the lesion area of the treated group and the untreated group, respectively, the efficacy of the treated group was calculated by the below-mentioned Equation 2. […]

Cc1cccc(-n2nnn(C)c2=O)c1COc1ccn(-c2ccc(Cl)cc2)n1 [Present compound 1-3, 1-(2-{[1-(4-chlorophenyl)-1H-pyrazol-3-yl]oxymethyl}-3-methylphenyl)-4-methyl-1,4-dihydrotetrazol-5-one]
Efficacy (%) (wheat leaf blight fungus; concentration in medium 0.0001 ppm): 20% | Efficacy (%) (wheat leaf blight fungus; concentration in medium 0.01 ppm): 37% | Efficacy (%) ([1]; concentration 0.002 ppm): 35% | Efficacy (%) ([1]; concentration 0.01 ppm): 70%
